Measured values taken from patent US12194070B2, “Traditional chinese medicine compound for improving testicular dysfunction, preparation method and application thereof” (Ningxia Medical University, priority 2023, dated 2025).
Counter-ions that a name gives are not always drawn.

Experiments:
Type in all cases: in vivo, C57BL/6J mice
[1] = test system: mice with testicular dysfunction caused by obese type 2 diabetes mellitus; test: Insulin tolerance test (ITT); settings: metformin 200 mg/kg/d, after 30 days; blood glucose 0-120 min after insulin
Protocol: (§1) 2.3 After 30 days of administration of each group in step 2.2, the following tests are performed in each group.
(§2) ITT test: the mice are weighed after 5 h fast, the insulin dosage is calculated, and FPG of the mice is measured. Blood glucose fluctuations are then monitored at 15 min, 30 min, 60 min and 120 min after insulin is given. Data is analyzed using GraphPad Prism 8.4 statistical software. Counting data of experimental results is expressed as rate/percentage (%), and measurement data is expressed as x±s. The one-way ANOVA is used to compare the groups, and the difference is statistically significant with P<0.05.

[2] = test system: sperm and egg cells; test: In vitro fertilization with sperm of the treated mice
Source text: The sperm of the mice in each group is taken for fertilization in vitro.

[3] = test system: mice with testicular dysfunction caused by obese type 2 diabetes mellitus; test: Oral glucose tolerance test (OGTT); settings: metformin 200 mg/kg/d, after 30 days; blood glucose 0-120 min after gavage
Protocol: as §1
(§3) OGTT test: the mice are weighed after 15 h fast, fasting blood glucose (FPG) of the mice is measured separately, and the amount of glucose is determined based on the mice's weight. Blood glucose fluctuations are then monitored at 15 min, 30 min, 60 min and 120 min after gavage. Data is analyzed using GraphPad Prism 8.4 statistical software. Counting data of experimental results is expressed as rate/percentage (%), and measurement data is expressed as x±s. The one-way ANOVA is used to compare the groups, and the difference is statistically significant with P<0.05.

[4] = test system: sperm of obese type 2 diabetic mice; test: Analysis of semen parameters; settings: metformin 200 mg/kg/d, after 30 days
Protocol: One side of epididymis in each group is put into a 12-well plate, diluted with 500 μL of normal saline, fully cut into pieces by a tissue scissor, incubated in a 37° C. incubator, and filtered by a 200-mesh sieve, and 20 μL of filtrate is collected on a cell counting plate, observed under a microscope, and the number of sperm is counted. Sperm viability, sperm motility and malformation rate are counted respectively by Yin Hong aniline black and Diff-Quick staining. Data is analyzed using GraphPad Prism 8.4 statistical software. Counting data of experimental results is expressed as rate/percentage (%), and measurement data is expressed as x±s. The one-way ANOVA is used to compare the groups, and the difference is statistically significant with P<0.05.

[5] = test system: obese type 2 diabetic mice; test: Cage experiment (fertility)
Protocol: Female mice of childbearing age are caged with male mice of each group in the ratio of 2:1 for one week, and their fertility is tested by the birth situation.

[6] = test system: mice with testicular dysfunction caused by obese type 2 diabetes mellitus; test: Fasting blood glucose (FPG); settings: metformin 200 mg/kg/d, day 30
Protocol: as §3, §2

[7] = test system: testosterone (T); test: Serum testosterone by ELISA; settings: metformin 200 mg/kg/d, after 30 days
Protocol: (§4) The levels of T-SOD, MDA and GSH-px in serum are measured by colorimetry, and the level of testosterone (T) in serum is measured by enzyme linked immunosorbent assay (ELISA), all according to the manufacturer's instructions. Data is analyzed using GraphPad Prism 8.4 statistical software. Counting data of experimental results is expressed as rate/percentage (%), and measurement data is expressed as x±s. The one-way ANOVA is used to compare the groups, and the difference is statistically significant with P<0.05.

[8] = test system: obese type 2 diabetic mice; test: Testis, epididymis and seminal vesicle gland coefficients; settings: metformin 200 mg/kg/d, after 30 days
[9] = test system: mouse testis tissue; test: HE staining of testis tissue (testicular morphology); settings: HE staining 200x; metformin 200 mg/kg/d, after 30 days
[10] = test system: PI3K; test: Western blot of PI3K expression in testis; settings: Western blot gray values, metformin 200 mg/kg/d, after 30 days
Protocol: (§5) Protein samples are taken and added into concentrated gel of an electrophoresis tank for running the gel, transferring the protein from the gel to the membrane, bovine albumin (BSA) blocking and membrane washing, then primary antibodies (including PI3K (rabbit antibody), AKT (rabbit antibody), p-AKT (rabbit antibody), β-actin (rabbit antibody), Bcl-2 (rabbit antibody) and β-actin (mouse antibody) diluted at the concentration 1:1000) are added for incubation and stay overnight in the refrigerator at 4° C.; the next day, the membrane is washed, after the secondary antibodies (including: a mouse secondary antibody (1:5000) and a rabbit secondary antibody (1:2000)) are added for incubation and blocked, the membrane is washed, followed by development, and then gray values are analyzed. Data is analyzed using GraphPad Prism 8.4 statistical software. Counting data of experimental results is expressed as rate/percentage (%), and measurement data is expressed as x±s. The one-way ANOVA is used to compare the groups, and the difference is statistically significant with P<0.05.

[11] = test system: MDA; test: Serum MDA by colorimetry; settings: metformin 200 mg/kg/d, after 30 days
Protocol: as §4

[12] = test system: T-SOD; test: Serum T-SOD by colorimetry; settings: metformin 200 mg/kg/d, after 30 days
Protocol: as §4

[13] = test system: Bcl-2; test: Western blot of Bcl-2 expression in testis; settings: Western blot gray values, metformin 200 mg/kg/d, after 30 days
Protocol: as §5

[14] = Body weight of mice with testicular dysfunction caused by obese type 2 diabetes mellitus; design: AUC of weight before treatment: unit not given beside the values
Protocol: With six mice in each group, the mice are randomly assigned after one week of adaptive rearing to a control group (Con), a model group (Model), a high-dose compound group (YPBS-H), a low-dose compound group (YPBS-L) and a metformin group (Metformin, Met). The six mice in the control group are given regular feed, the remaining mice are fed with 60% high-fat feed, the weight of each of mice is recorded every 7 days during the feeding.
The mice in each group have been successfully established after feeding for 16 weeks in step 2.1, and the mice in each group are given medicine treatment as follows.
The high-dose compound group (YPBS-H): the traditional Chinese medicine compound obtained in the embodiment 1 is given at a dose of 4 grams per kilogram per day (g/kg/d) per animal.
The low-dose compound group (YPBS-L): the traditional Chinese medicine compound obtained in the embodiment 1 is given at a dose of 2 g/kg/d per animal.
The metformin group (Met): the metformin is given at a dose of 200 mg/kg/d per animal.
During the administration, the mice are fed with the normal feed and drink water normally, and the weight changes of mice are observed. Data is analyzed using GraphPad Prism 8.4 statistical software. Counting data of experimental results is expressed as rate/percentage (%), and measurement data is expressed as x (i.e., mean)±s. The one-way analysis of variance (ANOVA) is used to compare the groups, and the difference is statistically significant with P<0.05.

[15] = test system: GSH-px; test: Serum GSH-Px by colorimetry; settings: metformin 200 mg/kg/d, after 30 days
Protocol: as §4

[16] = test system: p-AKT; test: Western blot of p-AKT expression in testis; settings: Western blot gray values, metformin 200 mg/kg/d, after 30 days
Protocol: as §5

[17] = after treatment, dose group not stated
[18] = of 10 egg cells, sperm of mice given metformin 200 mg/kg/d
[19] = females caged with males 2:1 for one week, males given metformin 200 mg/kg/d

CN(C)C(=N)N=C(N)N [Met, metformin hydrochloride]
ITT-AUC [1]: 760.7 ± 49.5^Δ
binding rate of sperm and egg cells [2, 17]: increases
division of fertilized egg cells [2, 17]: divide normally
Number of division of fertilized eggs within 24 hours [2, 18]: 7
Sperm and egg binding number [2, 18]: 7
OGTT-AUC [3]: 1660 ± 70.3^Δ
Sperm count [4]: 85.02 ± 10.55^Δ 10^6/L
Sperm malformation rate [4]: 68.18 ± 4.12^Δ %
Sperm motility [4]: 34.55 ± 0.37^Δ %
Sperm viability [4]: 43.84 ± 3.59^Δ %
fertility of the mice [5, 17]: improved, reaching the normal fertility level
Average number of offspring [5, 19]: 5.3
Pregnancy rate [5, 19]: 50%
Vaginal suppository [5, 19]: 50%
FPG on the 30th day after treatment [6]: 5.5 ± 0.9^Δ
Testosterone T [7]: 5.06 ± 1.42 ng/mL
Epididymis coefficient [8]: 0.33 ± 0.03^Δ %
Seminal vesicle gland coefficient [8]: 1.21 ± 0.06^Δ %
Testis coefficient [8]: 0.65 ± 0.04^Δ %
testicular morphology compared to the model group [9]: considerably improved
PI3K/β-actin [10]: 0.945 ± 0.056^Δ
MDA [11]: 5.6 ± 1.5^Δ umol/L
T-SOD [12]: 168.4 ± 34.7^Δ U/mgprot
Bcl-2/β-actin [13]: 1.020 ± 0.076^Δ
AUC of weight before treatment ([14]; before treatment (16 weeks high-fat feed), metformin group): 613.8 ± 5.3^Δ
AUC of weight after treatment ([14]; metformin 200 mg/kg/d, 30 days): 1243.0 ± 12.0^Δ
Weight on the 30th day after treatment ([14]; metformin 200 mg/kg/d, day 30): 37.9 ± 2.2^Δ g
GSH-Px [15]: 2206.0 ± 535.6^Δ umol/L
p-AKT/AKT [16]: 0.635 ± 0.141
